{"source": "patent US6514988B1", "about": "“Condensed-ring thiophene derivatives, their production and use” (Takeda Chemical Industries, Ltd., priority 1994, dated 2003)", "key": {"male SD rats": {"test_system": "male SD rats", "experiment": "Suppression of testosterone concentration in rat plasma", "format": "in vivo", "details": "30 mg per 1 kg once subcutaneously, plasma at 24 hours after administration, p<0.05", "method": "The compound 15 produced in Working Example 9 was dissolved in vehicle I (20% propylene glycol-80% physiological saline). The solution was administered once subcutaneously to male SD rats (8-week old, n=5). […] Animals administered with the vehicle alone were used as control."}, "[1]": {"test_system": "primary cultured cells of rat pituitary anterior lobes", "experiment": "Inhibition of LH/FSH secretion by primary cultured cells of rat pituitary anterior lobes", "format": "cell-based", "details": "100 μl of 20 μM compound solution + 100 μl of 5 nM GnRH in 800 μl medium, 37° C. for 3 hours", "method": "Anterior lobes of pituitary glands from 40 Wistar rats (8-week old, male) was put into a petri dish containing buffer A (0.7 mM sodium dihydrogen phosphate, 137 mM sodium chloride, 5 mM potassium chloride, 25 mM HEPES, 50 μg/ml gentamicin sulfate), which was once washed with the buffer A, then the anterior lobes were divided into four portions, followed by further washing twice. […] The concentrations of […] and FSH in the supernatant were determined by using the radio immunoassay kit (Amersham Inc.).\nBy calculating in accordance with the formula; 100−(LH or FSH concentration in the presence of the compound)/(LH or FSH concentration of the control culture)×100, the inhibiting rate (%) of LH or FSH secretion by each compound was determined. […]"}, "male ICR mice": {"test_system": "male ICR mice", "details": "30 mg per 1 kg orally once a day during 3 days, plasma at 24 hours after administration, p<0.05", "quoted_text": "The solution was administered oraly once a day during successive 3 days to male ICR mice (10-week old, n=12). The dosage was 30 mg per 1 kg of body weight. ICR mice administered with vehicle alone were used as control (n=15). At 24 hours after the administration, blood was collected from jugular vein under anesthesia with ether. To the blood were immediately added ethylenediamine tetracetate (EDTA) at a final concentration of 3 mg/ml and aprotinin at a final concentration of 300 KIU/ml. The mixture was centrifuged for 15 minutes at 3000×g, and the concentration of testosterone in the plasma was measured by the radio immunoassay.\nThe rate of testosterone suppression (%) of the test compound was determined by the formula; 100−(concentration of plasma testosterone in the test group)/(concentration of plasma testosterone in the control group)×100."}}, "note": "Counter-ions that a name gives are not always drawn. Like-named read-outs stand apart in the source and are kept apart here."}
{"smiles": "CCOC(=O)c1cn(Cc2ccccc2OC)c2sc(-c3ccc(OC)cc3)c(CN(C)Cc3ccccc3)c2c1=O", "note": "(as salt: hydrochloride) [3-(N-benzyl-N-methylaminomethyl)-4,7-dihydro-7-(2-methoxybenzyl)-2-(4-methoxyphenyl)-4-oxothieno[2,3-b]pyridine-5-carboxylic acid ethyl ester]", "values": [{"measurement": "melting point", "value": "147 to 152", "unit": "°C"}]}
{"smiles": "CCOC(=O)c1cn(Cc2ccccc2OC)c2sc(-c3ccc(OC)cc3)c(CN(C)Cc3ccccc3)c2c1=O", "note": "[3-(N-benzyl-N-methylaminomethyl)-4,7-dihydro-7-(2-methoxybenzyl)-2-(4-methoxyphenyl)-4-oxothieno[2,3-b]pyridine-5-carboxylic acid ethyl ester]", "values": [{"measurement": "rate of testosterone suppression (%)", "setting": "male SD rats", "value": "38±9.7", "unit": "%"}, {"measurement": "inhibition at 20 µM (stock)", "setting": "[1]; p<0.01, n=3, read-out: inhibiting rate (%) of FSH secretion", "value": "20 ± 10", "unit": "%"}, {"measurement": "inhibition at 20 µM (stock)", "setting": "[1]; p<0.01, n=3, read-out: inhibiting rate (%) of LH secretion", "value": "28 ± 9", "unit": "%"}]}
{"smiles": "CCC(=O)Nc1ccc(-c2sc3c(c2CN(C)Cc2ccccc2)c(=O)c(C(=O)c2ccccc2)cn3Cc2c(F)cccc2F)cc1", "note": "[Working Example 56, 5-Benzoyl-7-(2,6-difluorobenzyl)-4,7-dihydro-3-(N-methyl-N-benzylaminomethyl)-2-(4-propionylamidophenyl)-4-oxothieno[2,3-b]pyridine]", "values": [{"measurement": "rate of testosterone suppression (%)", "setting": "male ICR mice", "value": "85±9.7", "unit": "%"}]}
